Values joined by “and” are separate entries in the source; they are usually repeats but may differ in a detail not shown here. Equal entries are not always repeated. “Also recorded” adds a separate entry of the source.
Tests used:
[1] = ECoG and sedation in test animals free to move; format: in vivo
Experimental: Some test animals were kept in restraint cases placed in a relatively soundproof room and some were left free to move in metal cases measuring 40×50×30 cm, which were also kept in a relatively quiet environment.
In the test animals which were free to move, the first signs of sedation produced by the intragastric administration of 7.5 mg/kg of compounds 1 and 4 appeared, respectively, at 16 minutes (compound 1) and at 8 minutes (compound 4). […] The duration of the effect was, however, shorter, not exceeding 3 hours under these conditions in contrast to the 5 hour minimum for restricted animals.

[2] = system: dorsal hippocampus; test: Hippocampal after-discharge (stimulation of dorsal hippocampus); format: in vivo; conditions: 7.5 mg/kg intragastric; for Duration of Hippocampal After-Discharge: individual animals
Experimental: The test animals for this study were also prepared according to the technique described by Monnier and Gangloff (infra B, page 30) and the animals were kept in restraint cages in a relatively soundproof room.
The activity of test compounds 1 and 4 was assessed in identical groups of test animals for each compound, with identical numbers of animals for hippocampal after-discharges and for amygdaloid after-discharges. A dose of 7.5 mg/kg of each test compound was adminstered by the intragastric route. In each animal, after-discharges were triggered every 45 minutes after the administration of a test compound.
The stimulation consisted of a series of waves with a duration of 3 m sec., delivered at a frequency of 40 c/sec., with 5 seconds as the total duration of the stimulation. The shocks were delivered by a Neurovar neurostimulator (Alvar Electronic), coupled to a CRC cathode oscilloscope (type OC 343). Cerebral electric activity was recorded by REEGA MINI HUIT electroencephalograph (Alvar Electronic).

[3] = Aggressive behavior elicited by foot shock; format: in vivo; conditions: oral
Source text: The aggressive behavior of test animals was elicited by a conventional foot shock procedure after administration of Compounds 1 and 4.

[4] = Emotional conditioning response (CER) in rats (Brady, Skinner box); format: in vivo
Source text: The method utilized that was published by Brady (1956) using a Skinner Box and a combination of a sound, a light and an electrical shock to produce anxiety in the test animals.
The more an animal is anxious, the less important is the score. When a test compound is a powerful anxiolytic, the value of the score is proportional to the dosage.

[5] = Convulsions induced by pentamethylenetetrazol in rats; format: in vivo
Experimental: The method utilized was according to the method published by Everett and Richards (1944) and Banziger (1965). The pentamethylenetetrazol was given subcutaneously (125 mg/kg) and the test compounds were given orally suspended in a 1% carboxymethyl cellulose solution.

[6] = Conditioned avoidance response (shuttle box); format: in vivo; conditions: for Number of Conditioned Avoidance Responses: CMC 1% 16.7 ± 0.3
Experimental: Conditioned avoidance response by trained animals in a conventional shuttle box procedure was determined after oral administration of Compounds 1 and 4.

[7] = Motor coordination in rats (rotarod, Dunham and Miya 1957)
[8] = Comparative tranquilizing effects: four plates test; format: in vivo
Source text: The method utilized was the 4 plates test of J. R. Boissier, et al (European J. of Pharm. 1968, Vol. 4, pages 145-151).

[9] = Rotarod test, equilibrium (Table 6); format: in vivo
[10] = Cortical and hippocampal arousal thresholds on stimulation of MRF, median thalamus and posterior hypothalamus; format: in vivo; conditions: 7.5 mg/kg intragastric
Experimental: The test animals in this study were prepared by the techniques described by Monnier and Gangloff under the preceding study (infra B, page 30). Stimulation consisted of a series of waves delivered at a frequency of 200 c/sec., lasting 0.3 m sec., with a total duration of the stimulus being 5 sec. These shocks were delivered by a Neurovar neurostimulator (Alvar Electronic) coupled with a CRC cathode oscilloscope (type OC 343). Cerebral electrical activity was recorded on a REEGA MINI HUIT electroencephalograph (Alvar Electronic). The test animals were kept in restraint cages in a relatively soundproof room.
The activity of compounds 1 and 4 was tested in a series of six test animals for each compound, with a single dose of 7.5 mg/kg administered by the intragastric route. In each animal, the arousal threshold was determined for two of the three structures tested so that for each compound, each of the three structures stimulated were tested four times.
In making the baseline tracing, the threshold voltage was determined by a finding that the duration of the arousal reaction produced by the 5-second stimulation exceeded the duration of the stimulation by at least 5 seconds, that is, for a minimum of 10 seconds.
The various thresholds were determined every 45 minutes after administration of the compounds, for a total period of four and one-half hours.
The critical value for raising of a threshold was fixed at 0.1 volts. This constituted the maximum variation recorded during 41/2 hours in the control animals.
The results were taken in two forms and then summarized. In the first result, each animal was observed, yielding the values for the thresholds recorded at each time interval as well as the ratios of the values obtained in each of the stimulated structures.

[11] = Potentiation of narcotic effect of Veronal; conditions: in vivo
[12] = Reduction in motor activity between 60 and 90 minutes; format: in vivo; conditions: for Reduction in Motor Activity Between 60 and 90 Minutes: significance NS (comp. 1), 0.002 (comp. 4)
[13] = 7.5 mg/kg intragastric, animals free to move

C#CCN1C(=O)CN=C(c2ccccc2Cl)c2cc(Cl)ccc21 [Compound 4, 7-chloro-2,3-dihydro-5-(2-chlorophenyl)-1-propargyl-1,H-1,4-benzodiazepine-2-one]
duration of the ECoG effect [1, 13]: ≤ 3 h
first signs of sedation [1, 13]: 8 min
duration of ECoG effects (three compounds compared) ([1]; unrestricted animals, compound 3 at 10 mg/kg): about 31/2
effect on duration of hippocampal after-discharge [2]: no apparent effect on the duration of the paroxysm
Duration of Hippocampal After-Discharge ([2]; 45 Mins.): 10 s and 20 s and 18 s and 14 s and 12 s
Duration of Hippocampal After-Discharge ([2]; 90 Mins.): 7 s and 16 s and 20 s and 15 s and 11 s
Duration of Hippocampal After-Discharge ([2]; 135 Mins.): 6 s and 15 s and 17.5 s and 13.5 s and 14 s
Duration of Hippocampal After-Discharge ([2]; 180 Mins.): 8 s and 10.5 s and 18 s and 15 s
Duration of Hippocampal After-Discharge ([2]; 225 Mins.): 9 s and 19 s and 18.5 s and 13 s and 10 s
Duration of Hippocampal After-Discharge ([2]; 270 Mins.): 10 s and 22 s and 27 s and 13 s and 16 s
ED50 [3]: 2.7 mg/kg
Number of Responses, After - CER ([4]; 1.25 mg/kg/os): 86.43 ± 22.13
Number of Responses, Before - CER ([4]; 1.25 mg/kg/os): 81.28 ± 16.17
Number of Responses, CER ([4]; 1.25 mg/kg/os): 26.25 ± 4.57
Number of Responses, After - CER ([4]; 2.5 mg/kg/os): 79.75 ± 15.24
Number of Responses, Before - CER ([4]; 2.5 mg/kg/os): 66.75 ± 11.80
Number of Responses, CER ([4]; 2.5 mg/kg/os): 31.12 ± 6.54
Number of Responses, After - CER ([4]; 5 mg/kg/os): 79.00 ± 20.03
Number of Responses, Before - CER ([4]; 5 mg/kg/os): 65.00 ± 14.89
Number of Responses, CER ([4]; 5 mg/kg/os): 38.37 ± 8.76
% Protected Animals ([5]; 6 mg/kg/os, pentamethylenetetrazol 125 mg/kg s.c.): 20%
% Protected Animals ([5]; 8.5 mg/kg/os, pentamethylenetetrazol 125 mg/kg s.c.): 60%
% Protected Animals ([5]; 12 mg/kg/os, pentamethylenetetrazol 125 mg/kg s.c.): 70%
ED50 ([5]; Rattus norvegicus, oral, protection against pentamethylenetetrazol, read-out: ED50 (and C.L.) (converted)): 8.5 mg/kg
% Protected Animals ([5]; Time 90 min.): 37%
% Protected Animals ([5]; Time 120 min.): 18%
% Protected Animals ([5]; Time 180 min.): 0%
% Protected Animals ([5]; Time 240 min.): 0%
% Decrease (conditioned avoidance responses) ([6]; 5 mg/kg oral): -44%
Number of Conditioned Avoidance Responses ([6]; 5 mg/kg oral): 9.2 ± 1.4
% Decrease (conditioned avoidance responses) ([6]; 10 mg/kg oral): -85%
Number of Conditioned Avoidance Responses ([6]; 10 mg/kg oral): 2.5 ± 1.5
% Uncoordinated Animals ([7]; 12 mg/kg/os): 37.5%
% Uncoordinated Animals ([7]; 17 mg/kg/os): 50%
% Uncoordinated Animals ([7]; 24 mg/kg/os): 87.5%
Potency Against Comp. 1 ([7]; C.L. (3.09. 6.79), X^2 parallelism 0.005): 4.58
TD50 ([7]; rat, rotarod, po): 14.9 mg/kg
ED50 ([8]; 1 h, 60 min. after administration, doses between 0.5 and 4 mg/kg, confidence limits for P = 0.05): 5.5 mg/kg
Duration of effect ([8]; compounds 1 and 4 compared): comparable
usability of 4 plates test ([8]; over 3 mg/kg): caused motor activity to be so reduced that 4 plates test
Rotarod Test % of Animals With Unchanged Equilibrium ([9]; 1 mg/kg): 50.0%
Rotarod Test % of Animals With Unchanged Equilibrium ([9]; 3 mg/kg): 8.3%
changes in equilibrium / motor coordination ([9]; in vivo): degradation of motor coordination
effect on arousal pathways (in words) [10]: substantially raised the cortical and hippocampal arousal thresholds following stimulation of the reticular formation of the brain stem; also recorded: posterior hypothalamus appeared to be little affected; also recorded: moderately reduced in duration
% of Mean Variation of arousal threshold, Cortex ([10]; MRF stimulation): +311%
% of Mean Variation of arousal threshold, Hippocampus ([10]; MRF stimulation): +308%
% of Mean Variation of arousal threshold, Cortex ([10]; Median Thalamus stimulation): +67%
% of Mean Variation of arousal threshold, Hippocampus ([10]; Median Thalamus stimulation): +67%
% of Mean Variation of arousal threshold, Cortex ([10]; Posterior Hippocampus): +56%
% of Mean Variation of arousal threshold, Hippocampus ([10]; Posterior hypothalamus stimulation): +60%
narcotic effect of a minimal dose of Veronal [11]: potentiate the narcotic effect of a minimal dose of Veronal
Reduction in Motor Activity Between 60 and 90 Minutes ([12]; 1 mg/kg): -69%
Reduction in Motor Activity Between 60 and 90 Minutes ([12]; 3 mg/kg): -82%
changes in motor activity / voluntary motility ([12]; in vivo): reduces voluntary motility

Reference: US4313943A, “7-Chloro-2,3-dihydro-5-phenyl-1-propargyl-1H-1,4-benzodiazepine-2-one, and a pharmaceutical composition thereof” (priority 1972, dated 1982)
